Source: patent publication US12559465B2, “Substituted benzotriazinone metabolites of a GPR139 agonist” (TAKEDA PHARMACEUTICAL COMPANY LIMITED, priority 2020, dated 2026)

Key:
Type in all cases: in vitro ADME
BSEP [1] = target: T1, BSEP (Canis lupus familiaris, UniProt B8K1W2); assay: BSEP inhibition in membrane vesicles (dog)
T1 sequence (B8K1W2 1-1325): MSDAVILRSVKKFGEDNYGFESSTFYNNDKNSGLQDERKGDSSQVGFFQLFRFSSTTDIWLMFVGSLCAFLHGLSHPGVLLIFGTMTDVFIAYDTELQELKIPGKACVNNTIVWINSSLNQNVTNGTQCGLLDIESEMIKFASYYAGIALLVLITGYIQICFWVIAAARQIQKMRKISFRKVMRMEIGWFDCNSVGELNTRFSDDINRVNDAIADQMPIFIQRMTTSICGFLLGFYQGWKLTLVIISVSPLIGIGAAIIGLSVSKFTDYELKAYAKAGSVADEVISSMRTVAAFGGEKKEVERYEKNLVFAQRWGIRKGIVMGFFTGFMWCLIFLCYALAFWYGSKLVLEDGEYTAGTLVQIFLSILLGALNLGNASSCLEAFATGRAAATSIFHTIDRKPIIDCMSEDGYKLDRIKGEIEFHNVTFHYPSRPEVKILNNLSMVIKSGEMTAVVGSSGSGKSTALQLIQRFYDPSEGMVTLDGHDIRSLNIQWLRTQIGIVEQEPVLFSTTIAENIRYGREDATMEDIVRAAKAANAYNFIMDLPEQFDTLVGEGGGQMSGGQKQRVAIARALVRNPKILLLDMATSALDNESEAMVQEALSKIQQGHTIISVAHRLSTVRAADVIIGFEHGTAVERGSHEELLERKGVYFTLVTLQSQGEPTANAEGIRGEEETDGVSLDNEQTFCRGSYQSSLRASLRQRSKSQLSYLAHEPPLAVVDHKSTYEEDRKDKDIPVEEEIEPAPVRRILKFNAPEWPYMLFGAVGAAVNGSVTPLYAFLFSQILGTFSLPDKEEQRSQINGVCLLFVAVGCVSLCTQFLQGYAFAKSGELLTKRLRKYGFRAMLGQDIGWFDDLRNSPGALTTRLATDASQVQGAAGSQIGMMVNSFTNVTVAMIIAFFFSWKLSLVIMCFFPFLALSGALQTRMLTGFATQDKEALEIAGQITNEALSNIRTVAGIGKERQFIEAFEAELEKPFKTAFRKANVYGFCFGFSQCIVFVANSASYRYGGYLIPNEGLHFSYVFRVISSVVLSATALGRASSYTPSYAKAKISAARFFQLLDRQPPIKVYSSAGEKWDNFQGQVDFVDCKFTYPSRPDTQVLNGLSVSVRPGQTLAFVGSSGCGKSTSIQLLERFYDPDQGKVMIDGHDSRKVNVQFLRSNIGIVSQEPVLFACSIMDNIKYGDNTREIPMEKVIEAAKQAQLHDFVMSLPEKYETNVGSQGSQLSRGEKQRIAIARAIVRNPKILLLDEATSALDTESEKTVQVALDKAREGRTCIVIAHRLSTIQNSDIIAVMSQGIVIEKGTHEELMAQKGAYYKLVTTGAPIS
Procedure: (§1) Inhibition of BSEP (dog and human) and MRP2 (dog and human) by Compound A and Compound B were tested in membrane vesicles.

MRP2 [2] = target: MRP2 (Homo sapiens, UniProt Q92887); assay: MRP2 inhibition in membrane vesicles (human)
Procedure: as §1

MRP2 [3] = target: MRP2 (Rattus norvegicus, UniProt Q63120); assay: MRP2 inhibition in membrane vesicles (rat)
BSEP [4] = target: BSEP (Homo sapiens, UniProt O95342); assay: BSEP inhibition in membrane vesicles (human)
Procedure: as §1

MRP4 = target: T2, MRP4 (Homo sapiens, UniProt O15439); assay: MRP4 inhibition (human)
T2 sequence (O15439 1-1325): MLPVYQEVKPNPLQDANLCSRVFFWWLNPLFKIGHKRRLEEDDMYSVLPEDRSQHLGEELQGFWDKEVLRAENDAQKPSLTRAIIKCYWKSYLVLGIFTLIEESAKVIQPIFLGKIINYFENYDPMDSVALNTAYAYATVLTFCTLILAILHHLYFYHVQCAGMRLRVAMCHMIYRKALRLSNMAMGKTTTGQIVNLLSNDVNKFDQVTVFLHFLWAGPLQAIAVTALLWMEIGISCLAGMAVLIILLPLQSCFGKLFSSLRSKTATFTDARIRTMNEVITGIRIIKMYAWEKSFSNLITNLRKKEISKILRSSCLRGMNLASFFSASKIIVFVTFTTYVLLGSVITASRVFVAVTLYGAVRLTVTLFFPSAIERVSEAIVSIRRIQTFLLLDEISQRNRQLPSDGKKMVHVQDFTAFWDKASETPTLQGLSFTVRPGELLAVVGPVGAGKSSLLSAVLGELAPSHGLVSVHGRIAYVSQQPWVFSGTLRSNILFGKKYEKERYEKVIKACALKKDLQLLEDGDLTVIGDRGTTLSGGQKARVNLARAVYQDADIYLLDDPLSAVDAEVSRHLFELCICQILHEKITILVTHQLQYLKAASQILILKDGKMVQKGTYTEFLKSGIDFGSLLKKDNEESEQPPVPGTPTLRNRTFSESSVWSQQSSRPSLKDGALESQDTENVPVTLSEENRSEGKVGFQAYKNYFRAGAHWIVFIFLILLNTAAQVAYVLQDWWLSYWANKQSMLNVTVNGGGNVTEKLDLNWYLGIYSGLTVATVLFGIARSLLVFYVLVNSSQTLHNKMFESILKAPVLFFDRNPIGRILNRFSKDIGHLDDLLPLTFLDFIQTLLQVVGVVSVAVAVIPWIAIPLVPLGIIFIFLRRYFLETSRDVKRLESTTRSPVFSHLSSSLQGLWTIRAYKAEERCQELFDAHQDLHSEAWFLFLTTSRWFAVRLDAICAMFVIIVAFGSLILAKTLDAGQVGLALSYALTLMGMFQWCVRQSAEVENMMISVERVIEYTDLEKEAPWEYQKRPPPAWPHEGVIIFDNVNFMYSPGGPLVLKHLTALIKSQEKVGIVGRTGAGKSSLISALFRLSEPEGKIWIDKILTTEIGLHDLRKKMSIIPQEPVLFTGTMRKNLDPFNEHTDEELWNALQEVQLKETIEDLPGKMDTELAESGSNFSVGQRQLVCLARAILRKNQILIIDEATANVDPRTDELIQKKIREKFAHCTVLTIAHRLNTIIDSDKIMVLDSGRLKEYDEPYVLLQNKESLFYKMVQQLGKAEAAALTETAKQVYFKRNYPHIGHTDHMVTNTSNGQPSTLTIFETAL

MRP3 = MRP3 (Homo sapiens, UniProt O15438); assay: MRP3 inhibition (human)
BSEP [5] = target: T3, BSEP (Rattus norvegicus, UniProt O70127); assay: BSEP inhibition in membrane vesicles (rat)
T3 sequence (O70127 1-1321): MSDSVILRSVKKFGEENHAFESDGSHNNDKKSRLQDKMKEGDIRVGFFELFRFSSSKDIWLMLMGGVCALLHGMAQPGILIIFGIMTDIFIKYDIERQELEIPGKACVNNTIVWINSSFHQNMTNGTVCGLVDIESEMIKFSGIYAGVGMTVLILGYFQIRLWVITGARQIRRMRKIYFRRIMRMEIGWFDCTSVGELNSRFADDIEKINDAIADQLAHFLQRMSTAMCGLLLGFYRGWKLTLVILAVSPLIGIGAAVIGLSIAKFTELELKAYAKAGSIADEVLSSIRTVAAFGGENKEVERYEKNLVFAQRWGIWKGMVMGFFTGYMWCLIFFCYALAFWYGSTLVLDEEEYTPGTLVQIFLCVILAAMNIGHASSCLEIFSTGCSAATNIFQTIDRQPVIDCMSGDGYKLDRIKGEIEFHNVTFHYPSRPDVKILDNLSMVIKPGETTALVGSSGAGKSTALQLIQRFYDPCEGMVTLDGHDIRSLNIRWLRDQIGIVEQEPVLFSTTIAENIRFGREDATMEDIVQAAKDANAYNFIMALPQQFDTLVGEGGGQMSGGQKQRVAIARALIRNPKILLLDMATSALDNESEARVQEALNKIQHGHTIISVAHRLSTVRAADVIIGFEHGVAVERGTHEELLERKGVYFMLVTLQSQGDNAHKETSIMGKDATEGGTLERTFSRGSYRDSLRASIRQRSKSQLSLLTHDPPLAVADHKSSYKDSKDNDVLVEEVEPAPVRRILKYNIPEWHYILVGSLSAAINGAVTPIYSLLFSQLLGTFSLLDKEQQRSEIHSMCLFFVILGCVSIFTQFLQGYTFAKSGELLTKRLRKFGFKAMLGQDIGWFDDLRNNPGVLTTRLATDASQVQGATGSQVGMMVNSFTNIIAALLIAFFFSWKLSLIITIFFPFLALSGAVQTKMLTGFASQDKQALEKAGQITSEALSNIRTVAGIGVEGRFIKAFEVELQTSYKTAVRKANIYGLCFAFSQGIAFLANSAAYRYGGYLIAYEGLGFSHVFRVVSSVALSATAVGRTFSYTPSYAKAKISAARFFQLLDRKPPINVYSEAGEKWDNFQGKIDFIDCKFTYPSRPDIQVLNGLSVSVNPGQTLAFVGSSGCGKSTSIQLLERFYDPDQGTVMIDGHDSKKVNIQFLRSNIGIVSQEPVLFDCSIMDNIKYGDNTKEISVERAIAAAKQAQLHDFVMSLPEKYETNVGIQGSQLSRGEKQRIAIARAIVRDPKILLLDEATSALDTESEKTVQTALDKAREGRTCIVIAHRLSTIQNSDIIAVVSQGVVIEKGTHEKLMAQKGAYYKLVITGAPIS

MRP2 [6] = target: MRP2 (Canis lupus familiaris, UniProt A0A8I3SCV5); assay: MRP2 inhibition in membrane vesicles (dog)
Procedure: as §1

BSEP (Homo sapiens, UniProt O95342), sequence (O95342 whole entry): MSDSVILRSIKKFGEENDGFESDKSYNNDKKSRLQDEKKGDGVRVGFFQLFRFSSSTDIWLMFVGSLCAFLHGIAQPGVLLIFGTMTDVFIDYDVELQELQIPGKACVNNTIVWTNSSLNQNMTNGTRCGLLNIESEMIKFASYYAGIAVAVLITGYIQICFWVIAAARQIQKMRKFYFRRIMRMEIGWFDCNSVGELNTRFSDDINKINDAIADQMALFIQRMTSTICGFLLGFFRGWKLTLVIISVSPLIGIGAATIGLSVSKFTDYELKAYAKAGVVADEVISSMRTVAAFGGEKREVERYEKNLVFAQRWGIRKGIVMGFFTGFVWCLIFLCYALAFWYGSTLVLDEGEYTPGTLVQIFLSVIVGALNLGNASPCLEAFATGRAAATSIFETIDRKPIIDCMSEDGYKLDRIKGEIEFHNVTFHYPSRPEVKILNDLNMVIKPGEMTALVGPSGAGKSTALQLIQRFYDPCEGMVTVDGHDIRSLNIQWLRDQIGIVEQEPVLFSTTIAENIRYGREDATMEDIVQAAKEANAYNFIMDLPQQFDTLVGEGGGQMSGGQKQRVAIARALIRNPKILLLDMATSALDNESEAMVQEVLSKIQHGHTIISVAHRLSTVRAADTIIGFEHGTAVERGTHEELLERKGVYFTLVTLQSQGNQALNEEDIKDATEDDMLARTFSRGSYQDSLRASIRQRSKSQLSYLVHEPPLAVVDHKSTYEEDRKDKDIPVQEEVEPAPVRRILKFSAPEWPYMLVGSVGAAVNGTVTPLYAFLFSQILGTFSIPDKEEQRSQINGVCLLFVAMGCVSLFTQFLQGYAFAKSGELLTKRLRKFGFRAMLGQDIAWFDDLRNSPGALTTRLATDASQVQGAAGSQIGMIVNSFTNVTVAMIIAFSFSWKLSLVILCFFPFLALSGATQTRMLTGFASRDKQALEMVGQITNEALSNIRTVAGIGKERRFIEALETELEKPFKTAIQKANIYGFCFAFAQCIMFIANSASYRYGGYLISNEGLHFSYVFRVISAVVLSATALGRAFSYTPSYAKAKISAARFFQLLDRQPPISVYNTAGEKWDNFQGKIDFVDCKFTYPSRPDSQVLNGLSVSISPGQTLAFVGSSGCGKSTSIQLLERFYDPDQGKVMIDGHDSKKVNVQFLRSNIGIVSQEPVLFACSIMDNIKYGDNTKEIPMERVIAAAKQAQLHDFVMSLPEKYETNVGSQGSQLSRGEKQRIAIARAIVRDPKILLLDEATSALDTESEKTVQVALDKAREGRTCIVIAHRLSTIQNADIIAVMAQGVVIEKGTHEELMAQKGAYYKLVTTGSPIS
MRP2 (Canis lupus familiaris, UniProt A0A8I3SCV5), sequence (A0A8I3SCV5 1-1544): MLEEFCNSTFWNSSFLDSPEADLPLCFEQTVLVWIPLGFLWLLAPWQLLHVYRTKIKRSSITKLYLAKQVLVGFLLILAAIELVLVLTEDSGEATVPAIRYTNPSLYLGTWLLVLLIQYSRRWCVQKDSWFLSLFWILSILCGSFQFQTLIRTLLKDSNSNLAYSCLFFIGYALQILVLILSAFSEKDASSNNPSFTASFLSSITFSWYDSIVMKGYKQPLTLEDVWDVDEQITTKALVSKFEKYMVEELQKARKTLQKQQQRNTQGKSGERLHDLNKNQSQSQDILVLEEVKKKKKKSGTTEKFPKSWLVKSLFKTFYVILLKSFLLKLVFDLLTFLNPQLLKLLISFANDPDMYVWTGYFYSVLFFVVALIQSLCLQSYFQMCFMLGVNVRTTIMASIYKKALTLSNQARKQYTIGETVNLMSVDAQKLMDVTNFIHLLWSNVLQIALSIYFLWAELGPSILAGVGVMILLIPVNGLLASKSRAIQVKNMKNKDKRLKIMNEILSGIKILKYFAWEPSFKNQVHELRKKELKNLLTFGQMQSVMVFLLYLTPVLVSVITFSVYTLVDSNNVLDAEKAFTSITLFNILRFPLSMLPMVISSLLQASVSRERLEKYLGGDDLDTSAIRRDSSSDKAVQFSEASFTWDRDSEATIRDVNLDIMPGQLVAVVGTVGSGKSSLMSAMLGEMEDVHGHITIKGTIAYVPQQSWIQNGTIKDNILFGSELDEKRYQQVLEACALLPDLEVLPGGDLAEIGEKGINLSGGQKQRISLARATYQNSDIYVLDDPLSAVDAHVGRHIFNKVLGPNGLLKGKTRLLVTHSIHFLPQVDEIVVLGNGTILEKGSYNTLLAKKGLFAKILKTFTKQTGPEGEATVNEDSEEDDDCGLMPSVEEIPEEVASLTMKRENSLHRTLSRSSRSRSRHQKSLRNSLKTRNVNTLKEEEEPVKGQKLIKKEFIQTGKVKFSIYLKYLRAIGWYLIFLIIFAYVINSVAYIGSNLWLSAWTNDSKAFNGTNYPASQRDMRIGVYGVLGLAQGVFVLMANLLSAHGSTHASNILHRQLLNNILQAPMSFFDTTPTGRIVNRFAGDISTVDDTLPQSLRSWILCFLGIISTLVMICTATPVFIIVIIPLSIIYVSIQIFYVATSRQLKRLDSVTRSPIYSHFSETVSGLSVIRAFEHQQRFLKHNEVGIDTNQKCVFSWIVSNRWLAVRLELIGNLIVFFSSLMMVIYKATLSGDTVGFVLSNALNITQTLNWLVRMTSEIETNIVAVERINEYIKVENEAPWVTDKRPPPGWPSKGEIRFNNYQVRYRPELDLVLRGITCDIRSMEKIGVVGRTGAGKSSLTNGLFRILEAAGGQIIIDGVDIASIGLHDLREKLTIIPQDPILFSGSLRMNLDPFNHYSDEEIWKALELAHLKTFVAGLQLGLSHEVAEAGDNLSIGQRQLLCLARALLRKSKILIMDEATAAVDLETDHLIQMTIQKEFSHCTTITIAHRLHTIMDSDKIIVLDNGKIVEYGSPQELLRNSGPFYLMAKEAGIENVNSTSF
MRP2 (Homo sapiens, UniProt Q92887), sequence (Q92887 whole entry): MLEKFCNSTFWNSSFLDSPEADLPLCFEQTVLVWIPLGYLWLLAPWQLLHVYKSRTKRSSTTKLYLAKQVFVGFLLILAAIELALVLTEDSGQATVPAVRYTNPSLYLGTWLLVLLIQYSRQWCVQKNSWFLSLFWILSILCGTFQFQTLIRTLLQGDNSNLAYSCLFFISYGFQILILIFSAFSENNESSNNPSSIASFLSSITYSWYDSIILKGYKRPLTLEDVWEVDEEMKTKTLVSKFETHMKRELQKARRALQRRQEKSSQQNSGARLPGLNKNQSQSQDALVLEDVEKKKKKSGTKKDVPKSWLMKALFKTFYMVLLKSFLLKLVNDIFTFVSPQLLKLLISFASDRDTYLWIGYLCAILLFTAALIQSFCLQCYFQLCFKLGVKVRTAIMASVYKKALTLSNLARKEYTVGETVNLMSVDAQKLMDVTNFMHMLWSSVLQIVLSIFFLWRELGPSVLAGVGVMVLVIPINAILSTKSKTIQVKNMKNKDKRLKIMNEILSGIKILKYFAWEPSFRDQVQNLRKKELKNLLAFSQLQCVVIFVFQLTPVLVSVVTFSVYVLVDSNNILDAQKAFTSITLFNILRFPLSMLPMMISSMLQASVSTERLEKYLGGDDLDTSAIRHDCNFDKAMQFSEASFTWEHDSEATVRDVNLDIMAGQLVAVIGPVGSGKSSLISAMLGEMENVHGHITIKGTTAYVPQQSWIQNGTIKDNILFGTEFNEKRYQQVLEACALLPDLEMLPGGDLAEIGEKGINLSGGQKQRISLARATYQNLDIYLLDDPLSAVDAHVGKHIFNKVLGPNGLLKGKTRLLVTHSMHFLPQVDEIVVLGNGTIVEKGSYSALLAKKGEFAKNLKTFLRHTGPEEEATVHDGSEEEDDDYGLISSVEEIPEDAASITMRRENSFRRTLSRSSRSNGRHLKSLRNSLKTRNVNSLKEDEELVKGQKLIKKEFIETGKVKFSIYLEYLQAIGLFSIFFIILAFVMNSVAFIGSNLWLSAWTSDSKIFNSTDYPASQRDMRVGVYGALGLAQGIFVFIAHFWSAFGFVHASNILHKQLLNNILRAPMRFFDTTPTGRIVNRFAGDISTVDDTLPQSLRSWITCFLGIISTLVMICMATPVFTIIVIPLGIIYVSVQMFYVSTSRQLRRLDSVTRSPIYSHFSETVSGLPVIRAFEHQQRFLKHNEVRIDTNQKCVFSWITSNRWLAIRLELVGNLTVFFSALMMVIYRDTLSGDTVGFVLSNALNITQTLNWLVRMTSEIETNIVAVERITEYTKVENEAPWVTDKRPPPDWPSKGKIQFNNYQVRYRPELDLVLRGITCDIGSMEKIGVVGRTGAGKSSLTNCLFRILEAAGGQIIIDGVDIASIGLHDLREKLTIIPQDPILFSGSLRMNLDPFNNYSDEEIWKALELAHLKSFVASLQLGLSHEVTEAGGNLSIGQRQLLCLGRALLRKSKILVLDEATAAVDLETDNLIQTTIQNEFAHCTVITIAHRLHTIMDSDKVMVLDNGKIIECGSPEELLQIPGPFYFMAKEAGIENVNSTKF

Compound | IC50 (BSEP [1]) [µM] | IC50 (MRP2 [2]) [µM] | IC50 (MRP2 [3]) [µM] | IC50 (BSEP [4]) [µM] | IC50 (MRP4) [µM] | IC50 (MRP3) [µM] | IC50 (BSEP [5]) [µM] | IC50 (MRP2 [6]) [µM] | BSEP inhibition (BSEP [1]; result in words) | BSEP inhibition (BSEP [4]; result in words)
C[C@H](NC(=O)Cn1nnc2ccccc2c1=O)c1ccc(OC(F)(F)F)cc1 [Compound A, (S)-2-(4-oxobenzo[d][1,2,3]triazin-3(4H)-yl)-N-(1-(4-(trifluoromethoxy)phenyl)ethyl)acetamide] | 72.3 | > 200 | > 200 | > 200 | > 200 | > 200 | > 200 | > 200 | – | –
C[C@H](NC(=O)Cn1nnc2ccc(O[C@@H]3O[C@H](C(=O)O)[C@@H](O)[C@H](O)[C@H]3O)cc2c1=O)c1ccc(OC(F)(F)F)cc1 [Compound B, (2S,3S,4S,5R,6S)-3,4,5-trihydroxy-6-((4-oxo-3-(2-oxo-2-(((S)-1-(4-(trifluoromethoxy)phenyl)ethyl)amino)ethyl)-3,4-dihydrobenzo[d][1,2,3]triazin-6-yl)oxy)tetrahydro-2H-pyran-2-carboxylic acid] | > 200 | 83 | – | > 200 | – | – | – | 1.8 | not identified | not identified
